We go through 3 compounds from BindingDB's records for doi:10.1021/jm00053a023 (Monsanto, 1993).

The target in this assay is endothelin converting enzyme (Oryctolagus cuniculus). The assay is described as follows: Inhibition of endothelin converting enzyme in an RIA assay using big ET-1 as substrate (value corresponds to <25% inhibition when assayed at a 100 uM screening concentration).
Compound `CC(C)C[C@H](NP(=O)(O)OC1CCCCC1)C(=O)N[C@@H](Cc1c[nH]c2ccccc12)C(=O)O` [2-[2-(Cyclohexyloxy-hydroxy-phosphorylamino)-4-methyl-pentanoylamino]-3-(1H-indol-3-yl)-propionic acid] came in with a half-maximal inhibitory concentration (IC50) of 48 µM.
The value for `CCOP(=O)(O)N[C@@H](CC(C)C)C(=O)N[C@@H](Cc1c[nH]c2ccccc12)C(=O)O` [2-[2-(Ethoxy-hydroxy-phosphorylamino)-4-methyl-pentanoylamino]-3-(1H-indol-3-yl)-propionic acid] was 109 µM; that for `CC(C)C[C@H](NP(=O)(O)Cc1ccccc1)C(=O)N[C@@H](Cc1c[nH]c2ccccc12)C(=O)O` [2-[2-(Hydroxy-benzyl-phosphorylamino)-4-methyl-pentanoylamino]-3-(1H-indol-3-yl)-propionic acid] was 61 µM.
